Source: patent US11199553B2, “25-OH vitamin D derivatives for determining vitamin D metabolites” (ORGENTEC D[…], priority 2013, dated 2021)

Test system: 25OHD antibody
Conditions: even at a 25OHD3 concentration of 5 ng/ml; 7.5 ng/ml tracer; vitamin D-free serum matrix; OD 450 nm
Method: For the ELISA detection of the specific 25OHD competition, 80 μl of vitamin D release reagent were added to serial dilutions of 25OHD3 in vitamin D-free serum matrix (SerCon, Seracare Inc.) in concentrations of 0, 5, 10, 20, 20, 50, 100, 200, 300 ng/ml in the presence of 7.5 ng/ml of biotin-25OHD tracer reagent and applied to microtitre plate wells coated with an anti-25OHD antibody. The binding of the tracer on the basis of the competing 25OHD concentration was determined with peroxidase-labelled streptavidin and a tetramethylbenzidine (TMB) colour reaction by measuring the OD 450 nm.
An antibody against 25-OH-vitamin D3 or 25-OH-vitamin D2 was diluted in Tris-buffered saline pH 8.0 to a concentration of 1 μg/ml. The wells of a microtitre plate (Maxisorb, Nunc) were coated with 100 μl of the diluted antibody, dried at 37° C. and stored at 4° C. until the test was carried out.
Defined concentrations of 25-OHD3 were added to vitamin D-free serum matrix (Seracon, Seracare Inc.). […] The antibody-bound biotin-25OHD tracer was detected with peroxidase-labelled streptavidin and a tetramethylbenzidine (TMB) colour reaction. After the substrate reaction had been stopped by addition of 100 μl of 50 mM phosphoric acid, the optical density was measured at 450 nm.

Substance: 3α-[α-biotinamido-ω-dodeca(ethylene glycol)-amido]-25-hydroxy-deoxyvitamin D3 [VD1]
- competition of the tracer by 25OHD3 for binding sites on the 25OHD antibody: specific competition
